43 compounds from the SangsterLogP compilation can be followed below.

For orientation: logD means the decadic logarithm of the distribution of all forms, ionised or not, between an organic phase and buffer at a given pH. Low readings indicate lower lipophilicity, high ones higher lipophilicity. In general, logP refers to a log measure of how a compound divides between an organic and an aqueous phase. A high value points to a more lipophilic compound.

Data set [1] is described as follows: method code SF-RC, from DOI: 10.1016/s0969-8051(02)00326-8, PMID: 12234587. The settings on record: pH 7.4.
The nature of data set [2]: method code SF, from DOI: 10.1016/j.ijpharm.2011.07.043, PMID: 21839822. The settings on record: pH 7.4.
Data set [3] is described as follows: method code SF-AS, from DOI: 10.1021/js960093b, PMID: 8897274. The settings on record: pH 7.4.
Data set [4] in a line: method code SF-HPLC, from DOI: 10.1002/ps.2780130506.
The nature of data set [5]: method code SF-RC, from DOI: 10.1016/s0024-3205(01)01232-2. The settings on record: pH 7.4.
A short description of data set [6]: method code SF-RC, from DOI: 10.1016/j.bmc.2013.04.077, PMID: 23712084. The following applies: pH 7.4.
Data set [7] in a line: method code SF-RC, from DOI: 10.1016/j.nucmedbio.2010.09.012, PMID: 21492779. The settings on record: pH 7.4.
The nature of data set [8]: method code SF-NMR, from DOI: 10.1016/j.jpba.2012.12.010, PMID: 23298914. The settings on record: pH 7.6.
Data set [9] is described as follows: method code SF, from Tomlin, C. (2000). The Pesticide Manual (12th Edition) British Crop Protection Council, Bracknell.
Data set [10] can be described thus: method code SF-ILT, from DOI: 10.1002/ardp.19763091008, PMID: 1008678.
Data set [11] is described as follows: method code SF, from DOI: 10.1016/s0223-5234(03)00044-8, PMID: 12750026. The following applies: pH 7.4.
The nature of data set [12]: method code SF, from DOI: 10.1016/j.ejmech.2012.08.015, PMID: 22960698.
Test in data set [13]: not given
The source holds these as a separate data set.

Test in data set [14]: not given
The source holds these as a separate data set.

A short description of data set [15]: method code SF-GLC, from Jha, T.; Debnath, A.; Mazumdar, A.; Sengupta, C.; De, A. (1986). Hansch analysis of antineoplastic agents, 5-N-substituted-2-p-substituted benzenesulfonyl-L-glutamines. Ind. J. Chem., Sect. B, ….
Data set [16] can be described thus: method code SF-FL, from DOI: 10.1248/cpb.27.638, PMID: 554741.
Data set [17] is described as follows: method code SF, from DOI: 10.1016/0378-5173(91)90120-d.
The nature of data set [18]: method code SF, from DOI: 10.1021/jm5017544, PMID: 25671691. The settings on record: pH 7.4.
A short description of data set [19]: method code SF-AS, from DOI: 10.3109/00498258909043190, PMID: 2618089. The settings on record: pH 10.8.
Test in data set [20]: not given
This is another data set of the same source.

Data set [21] is described as follows: method code SF-AS, from Pogodaeva, N.; Medvedeva, S. (2005). Hydrophobic properties of a number of monosubstituted flavone and flavanone derivatives. Russian Journal of Physical Chemistry A, 79(4)645-648.
The nature of data set [22]: method code SF-AS, from DOI: 10.1016/j.ejmech.2010.07.027, PMID: 20705371.
The nature of data set [23]: method code SF-RC, from DOI: 10.1016/s0969-8051(01)00199-8, PMID: 11395310. The following applies: pH 7.4.
Data set [24] in a line: method code SF-HPLC, from DOI: 10.1248/cpb.32.1929. The settings on record: pH 7.2.
Test in data set [25]: not given
The source holds these as a separate data set.

Data set [26] is described as follows: method code SF-AS, from DOI: 10.1128/aac.27.1.84, PMID: 2580479.
Data set [27] can be described thus: method code SF, from PMID: 2161451. The settings on record: pH 7.4.
Test in data set [28]: not given
This is another data set of the same source.

Data set [29] in a line: method code SF-HPLC, from DOI: 10.1021/jm300631e, PMID: 22734650. The following applies: pH 7.4.
Test in data set [30]: not given
This is another data set of the same source.

A short description of data set [31]: method code SF-AS, from DOI: 10.1016/s0022-3565(25)32601-7, PMID: 7194909.
Data set [32] can be described thus: method code SF, from DOI: 10.1021/jm061062o.s001, PMID: 17326614. The following applies: pH 7.4.
A short description of data set [33]: method code SF-RC, from DOI: 10.1016/j.nucmedbio.2011.12.002, PMID: 22321533.
Test in data set [34]: not given
The source holds these as a separate data set.

Test in data set [35]: not given
This is another data set of the same source.

Test in data set [36]: not given
The source holds these as a separate data set.

Test in data set [37]: not given
This is another data set of the same source.

Test in data set [38]: not given
The source holds these as a separate data set.

The nature of data set [39]: method code SF-RC, from DOI: 10.1021/acs.jmedchem.6b00849, PMID: 27690428. The settings on record: pH 7.4.
Test in data set [40]: not given
The source holds these as a separate data set.

Test in data set [41]: not given
This is another data set of the same source.

The nature of data set [42]: method code SF-RC, from DOI: 10.1016/j.nucmedbio.2007.07.017, PMID: 17998101. The settings on record: pH 7.4.

With `CNc1ccc(-c2cc3cc(I)ccc3o2)cc1`, the logD in data set [1] stood at 2.04.

`CCCCCCCCNC(=O)c1ccccc1O` gave a logD in [2] of 3.7.

The compound `COc1ccc2c(c1)OCC2NC(=O)CN1CCCC1` (stereo not drawn) had a lipophilicity (logP) of 1.92.

`N#CN=C1NC(=O)C(c2ccccc2)(c2ccccc2)N1` had a log distribution coefficient (logD) in data set [3] of 1.16.

In [4], `CNC(=O)ON=Cc1cccc(Oc2ccccc2)c1` returned a lipophilicity (logP) of 3.12.

Compound `CNc1ccc(-c2nc3ccc(C)cc3s2)cc1` had a logD in [5] of 3.36.

`O=C(NCCCCCF)Oc1cccc(C2=NCCO2)c1` yielded a pH-dependent lipophilicity (logD) in data set [6] of 2.33.

For the compound `CN(C)c1ccc(-c2nc3ccc(I)cc3[nH]2)cc1`, the logD in [7] is 2.8.

Regarding `COC(=O)C(N)Cc1cc(I)c(Oc2ccc(O)c(I)c2)c(I)c1` (stereo not drawn), in data set [8], the pH-dependent lipophilicity (logD) amounted to 2.6.

As for `COCC(=O)N(c1c(C)cccc1C)C(C)C(=O)OC` (racemic), the log partition coefficient (logP) in [9] stood at 1.75.

With `CCNC(=O)C1C2C=CC(C2)C1C(=O)N(CC)CC` (stereo not drawn), the log partition coefficient (logP) in data set [10] is 0.99.

The compound `CNC(=O)Oc1ccc2c(c1)C1(C)CCN(C)C1N2C` (stereo not drawn) gave a logD in [11] of 0.97.

As for `O=C(CC1OC(=O)c2ccccc21)c1ccc(Cl)c(Cl)c1` (stereo not drawn), the log partition coefficient (logP) in data set [12] came out at 4.24.

In data set [13], `COC(=O)C1(O)c2ccccc2-c2ccccc21` gave a logP of 1.67.

With `Cc1c(-c2ccc(OCCCc3c[nH]cn3)cc2)no[n+]1[O-]`, in data set [14], the logP came to 2.4.

`CCCNC(=O)CCC(NS(=O)(=O)c1ccc(C)cc1)C(=O)O` (stereo not drawn) gave a lipophilicity (logP) in data set [15] of 0.13.

With `c1ccc(Nc2cccc3ccccc23)cc1`, the logP in [16] came out at 4.2.

As for `Cc1cccc(Nc2ccccc2C(=O)O)c1C`, in data set [17], the logP stood at 4.38.

The compound `Nc1ccc(-c2ccc3ccccc3n2)cc1` yielded a log distribution coefficient (logD) in data set [18] of 1.85.

Consider `O=C(Cn1c(=O)sc2ccc(Cl)cc21)N1CCN(CCO)CC1`, for which, in data set [19], the logD is 1.04.

For the compound `CC(C)(C)C(O)[C@H](Cc1ccc(Cl)cc1)n1cncn1` (stereo in doubt), the logP in data set [20] turned out to be 3.26.

`O=C1c2ccccc2OC(c2ccccc2)C1O` (stereo not drawn) came in with a lipophilicity (logP) in data set [21] of 2.57.

For the compound `CC(C)(C)c1ccc(O)c(CN2CCOCC2)c1`, the logP in data set [22] worked out at 1.96.

Regarding `CCN1CCC[C@H]1CNC(=O)c1c(OC)ccc(I)c1O`, the logD in [23] amounted to 2.85.

In data set [24], `COC(COC(N)=O)C1=C(N2CC2)C(=O)C(C)=C(N2CC2)C1=O` (stereo not drawn) showed a log distribution coefficient (logD) of 0.

For `CCc1cccc(C)c1N(C(=O)CCl)C(C)COC` (stereo not drawn), in [25], the logP worked out at 3.09.

Consider `CO[C@@]1(NC(=O)CSCC#N)C(=O)N2C(C(=O)O)=C(CSc3nnnn3C)CS[C@@H]21`, for which, in data set [26], the logP was -0.6.

The compound `CCOC(=O)c1ncn2c1CN(C)C(=O)c1c(I)cccc1-2` gave a log distribution coefficient (logD) in data set [27] of 1.48.

For the compound `CCN1C=CC(=C2C(=O)c3ccc(Cl)cc3C2=O)C=C1`, the logP in data set [28] came to 2.76.

Regarding `C=CCC1(c2cccc(C3(C(F)(F)F)N=N3)c2)C(=O)NC(=O)N(C)C1=O` (stereo not drawn), the logD in data set [29] was 3.79.

On to `CC(C)(c1cc(Br)c(O)c(Br)c1)c1cc(Br)c(O)c(Br)c1`, for which the log partition coefficient (logP) in data set [30] turned out to be 5.2.

For `OC1(c2ccc(Cl)cc2)c2ccccc2C2=NCCN21` (stereo not drawn), the logP in data set [31] came to 1.81.

On to `CS(=O)(=O)CCN(CCBr)c1cc(C(=O)NCC(O)CO)c([N+](=O)[O-])cc1[N+](=O)[O-]` (stereo not drawn), for which, in data set [32], the logD was -0.05.

For the compound `Cc1cn(C2CC(O)C(CO)O2)c(=O)n(Cc2cn(CCF)nn2)c1=O` (stereo not drawn), the lipophilicity (logP) in data set [33] was -1.22.

Turning to `O=C(O)Cc1ccc2c(c1O)C(=O)c1c(O)cccc1C2`, in data set [34], the logP turned out to be 3.1.

The compound `Cc1nc(N)nc(N)c1C12CC3CC(CC(C3)C1)C2` came in with a log partition coefficient (logP) in data set [35] of 2.64.

On to `Cc1ccc2oc(-c3ccccc3C(=O)O)c(Br)c2c1`, for which, in data set [36], the lipophilicity (logP) stood at 5.19.

In the case of `O=C(O)Cc1ccc2c(c1)C(=O)c1ccccc1CS2`, in data set [37], the logP came out at 2.97.

In data set [38], `CCCN(CCOc1c(Cl)cc(Cl)cc1Cl)C(=O)n1ccnc1` displayed a logP of 4.1.

Regarding `N#Cc1ccc(N(Cc2ccc(I)cc2)n2cnnc2)cc1`, the pH-dependent lipophilicity (logD) in [39] was 2.48.

In data set [40], `CCOP(=S)(NC(C)C)Oc1ccccc1C(=O)OC(C)C` (stereo not drawn) returned a logP of 3.7.

`CC(C(=O)O)c1ccc2c(c1)[nH]c1ccc(Cl)cc12` (stereo not drawn) displayed a lipophilicity (logP) in [41] of 4.04.

Compound `FCCON=C1C=C(C#Cc2ccccn2)CCC1` yielded a logD in data set [42] of 2.1.
